From ChEMBL document CHEMBL1287743, “Comparative inhibitory activity of 3'- and 5'-functionalized nucleosides on ribonuclease A” (Bioorg Med Chem, 2010)
Activity calls are given as the source filed them. The calls are words filed in the database; no cut-off is given here.

Key:
[1] = biological target: T1, Ribonuclease pancreatic (Bos taurus, UniProt P61823); assay: Competitive inhibition of bovine pancreatic RNase A ribonucleolytic activity of by Dixon plot analysis
T1 sequence (P61823 whole entry): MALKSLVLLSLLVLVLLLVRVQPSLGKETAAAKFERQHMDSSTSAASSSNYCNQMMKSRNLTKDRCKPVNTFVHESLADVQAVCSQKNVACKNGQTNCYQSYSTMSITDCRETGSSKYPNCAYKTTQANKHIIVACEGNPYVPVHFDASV

[2] = biological target: T2, Ribonuclease pancreatic (Bos taurus) (UniProt P61823); assay: Inhibition of bovine pancreatic RNase A ribonucleolytic activity of RNase A at 2.5 mM after 2 hrs by precipitation assay
T2 sequence (whole entry): T1 sequence (P61823 whole entry)

[3] = biological target: T2, Ribonuclease pancreatic (Bos taurus); assay: Inhibition of bovine pancreatic RNase A assessed as degradation of tRNA at 1.9 mM after 6 hrs using ethidium bromide staining by agarose gel-based assay

| SMILES | Ki [1] [µM] | inhibition [2] [%] | inhibition [3] |
| --- | --- | --- | --- |
| Cc1cn([C@H]2C[C@H](NC(=O)C(N)CC(=O)O)[C@@H](CO)O2)c(=O)[nH]c1=O (some centres undefined) | 37 | 47.6 | Active |
| Nc1ncnc2c1ncn2[C@@H]1O[C@H](C(=O)O)[C@@H](O)[C@H]1O [5'-CARBOXY ADENOSINE] | 67 | 32.2 | Active |
| Cc1cn([C@H]2C[C@H](O)[C@@H](C(=O)O)O2)c(=O)[nH]c1=O [5'-CARBOXY THYMIDINE] | 193 | 23.5 | Active |
